Legend:
[1] = target: Muscarinic acetylcholine receptor M2 (Homo sapiens) (UniProt P08172); conditions: Compound concentration 10.0 uM
[2] = target: T1, cAMP-dependent protein kinase catalytic subunit PRKX (Homo sapiens) (UniProt P51817); test: PRKX Kinase screen; conditions: Compound concentration 1.0 uM
T1 sequence (whole entry): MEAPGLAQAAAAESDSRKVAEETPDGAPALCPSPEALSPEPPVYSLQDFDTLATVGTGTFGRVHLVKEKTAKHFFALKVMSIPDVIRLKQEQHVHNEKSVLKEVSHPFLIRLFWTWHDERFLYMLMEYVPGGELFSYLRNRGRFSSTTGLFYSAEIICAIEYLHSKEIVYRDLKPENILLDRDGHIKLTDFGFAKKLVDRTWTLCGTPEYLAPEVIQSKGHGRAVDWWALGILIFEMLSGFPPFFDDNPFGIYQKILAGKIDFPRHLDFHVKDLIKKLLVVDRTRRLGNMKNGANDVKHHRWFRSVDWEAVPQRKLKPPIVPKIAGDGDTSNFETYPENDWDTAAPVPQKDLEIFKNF

[3] = target: MAP kinase-activated protein kinase 3 (Homo sapiens) (UniProt Q16644); test: MAPKAPK3 Kinase screen; conditions: Compound concentration 1.0 uM
[4] = target: Glutamate NMDA receptor (Rattus norvegicus) (UniProt P35439+Q00959+Q00960+Q00961+Q62645+Q8VHN2+Q9R1M7); conditions: Compound concentration 10.0 uM
[5] = target: Mitogen-activated protein kinase 14 (Homo sapiens) (UniProt Q16539); test: Inhibition of Protein Serine/Threonine Kinase, MAPK14 (p38α) at 10 µM in the Eurofins-Panlabs enzyme assay (Eurofins_assay_176610); parameters: substrate with concentration; conditions: Compound concentration 10.0 uM
[6] = target: T2, Mitogen-activated protein kinase kinase kinase 2 (Homo sapiens) (UniProt Q9Y2U5); test: MAP3K2 (MEKK2) Kinase screen; conditions: Compound concentration 1.0 uM
T2 sequence (whole entry): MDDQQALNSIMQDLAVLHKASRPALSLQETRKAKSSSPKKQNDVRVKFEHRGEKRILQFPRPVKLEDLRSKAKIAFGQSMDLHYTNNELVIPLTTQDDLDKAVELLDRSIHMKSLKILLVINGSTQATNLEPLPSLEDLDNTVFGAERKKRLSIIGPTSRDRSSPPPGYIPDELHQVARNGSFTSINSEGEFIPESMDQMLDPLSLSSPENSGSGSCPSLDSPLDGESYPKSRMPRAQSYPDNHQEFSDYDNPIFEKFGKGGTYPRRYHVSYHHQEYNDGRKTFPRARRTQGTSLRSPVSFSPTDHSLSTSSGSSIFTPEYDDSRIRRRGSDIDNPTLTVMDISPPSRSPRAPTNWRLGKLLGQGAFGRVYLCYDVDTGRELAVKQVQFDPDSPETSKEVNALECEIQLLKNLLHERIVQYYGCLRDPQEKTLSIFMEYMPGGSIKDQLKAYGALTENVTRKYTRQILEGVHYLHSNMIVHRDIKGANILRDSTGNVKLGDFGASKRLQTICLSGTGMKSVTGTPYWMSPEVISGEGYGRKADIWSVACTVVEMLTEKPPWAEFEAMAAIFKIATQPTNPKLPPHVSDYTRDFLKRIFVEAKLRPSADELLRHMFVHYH

[7] = target: Dual specificity protein kinase CLK3 (Homo sapiens) (UniProt P49761); test: CLK3 Kinase screen; conditions: Compound concentration 1.0 uM
[8] = target: T3, Activin receptor type-1 (Homo sapiens) (UniProt Q04771); test: ACVR1 (ALK2) Kinase screen; conditions: Compound concentration 1.0 uM
T3 sequence (whole entry): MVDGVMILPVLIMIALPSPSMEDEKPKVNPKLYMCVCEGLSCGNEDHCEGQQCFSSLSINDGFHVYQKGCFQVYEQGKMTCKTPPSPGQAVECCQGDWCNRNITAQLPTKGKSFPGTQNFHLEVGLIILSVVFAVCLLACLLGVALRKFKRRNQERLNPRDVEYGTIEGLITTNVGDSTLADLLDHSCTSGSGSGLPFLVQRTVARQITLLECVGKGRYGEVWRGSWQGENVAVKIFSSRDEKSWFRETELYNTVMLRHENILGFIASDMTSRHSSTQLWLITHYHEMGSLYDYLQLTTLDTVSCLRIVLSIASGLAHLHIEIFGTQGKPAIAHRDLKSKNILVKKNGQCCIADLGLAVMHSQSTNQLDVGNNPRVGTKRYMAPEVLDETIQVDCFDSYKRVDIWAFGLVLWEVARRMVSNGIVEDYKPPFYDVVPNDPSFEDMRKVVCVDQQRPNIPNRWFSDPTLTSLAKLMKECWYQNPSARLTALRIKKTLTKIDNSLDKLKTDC

[9] = target: Serine/threonine-protein kinase 16 (Homo sapiens) (UniProt O75716); test: STK16 (PKL12) Kinase screen; conditions: Compound concentration 1.0 uM
[10] = target: G protein-coupled receptor kinase 6 (Homo sapiens) (UniProt P43250); test: GRK6 Kinase screen; conditions: Compound concentration 1.0 uM
[11] = target: 3-phosphoinositide-dependent protein kinase 1 (PDPK1) (Homo sapiens) (UniProt O15530); test: PDK1 Direct Kinase screen; conditions: Compound concentration 1.0 uM
[12] = target: Focal adhesion kinase 1 (Homo sapiens) (UniProt Q05397); test: PTK2 (FAK) Kinase screen; conditions: Compound concentration 1.0 uM
[13] = target: RAC-beta serine/threonine-protein kinase (Homo sapiens) (UniProt P31751); test: AKT2 (PKB beta) Kinase screen; conditions: Compound concentration 1.0 uM
Rattus norvegicus = species: Rattus norvegicus; test: GABAA, Ro-15-1788, Hippocampus Eurofins-Panlabs radioligand binding assay; parameters: ligand concentration 1 nM; conditions: Compound concentration 10.0 uM
[14] = target: Tyrosine-protein kinase Lck (Homo sapiens) (UniProt P06239); test: LCK Kinase screen; conditions: Compound concentration 1.0 uM
[15] = target: Sphingosine kinase 2 (Homo sapiens) (UniProt Q9NRA0); test: SPHK2 Kinase screen; conditions: Compound concentration 1.0 uM
[16] = target: Serine/threonine-protein kinase PLK3 (Homo sapiens) (UniProt Q9H4B4); test: PLK3 Kinase screen; conditions: Compound concentration 1.0 uM
[17] = test system: Epidermal growth factor receptor (Homo sapiens), P00533 [L861Q]; test: EGFR (ErbB1) L861Q Kinase screen; conditions: Compound concentration 1.0 uM
[18] = target: 3-phosphoinositide-dependent protein kinase 1 (PDPK1) (Homo sapiens) (UniProt O15530); test: PDK1 Kinase screen; conditions: Compound concentration 1.0 uM
[19] = target: Myosin light chain kinase 2, skeletal/cardiac muscle (Homo sapiens) (UniProt Q9H1R3); test: MYLK2 (skMLCK) Kinase screen; conditions: Compound concentration 1.0 uM
[20] = target: Calcium/calmodulin-dependent protein kinase kinase 2 (Homo sapiens) (UniProt Q96RR4); test: CAMKK2 (CaMKK beta) Kinase screen; conditions: Compound concentration 1.0 uM

Measured: inhibition

Sequence of 3-phosphoinositide-dependent protein kinase 1 (PDPK1) (Homo sapiens) (O15530 whole entry, looked up): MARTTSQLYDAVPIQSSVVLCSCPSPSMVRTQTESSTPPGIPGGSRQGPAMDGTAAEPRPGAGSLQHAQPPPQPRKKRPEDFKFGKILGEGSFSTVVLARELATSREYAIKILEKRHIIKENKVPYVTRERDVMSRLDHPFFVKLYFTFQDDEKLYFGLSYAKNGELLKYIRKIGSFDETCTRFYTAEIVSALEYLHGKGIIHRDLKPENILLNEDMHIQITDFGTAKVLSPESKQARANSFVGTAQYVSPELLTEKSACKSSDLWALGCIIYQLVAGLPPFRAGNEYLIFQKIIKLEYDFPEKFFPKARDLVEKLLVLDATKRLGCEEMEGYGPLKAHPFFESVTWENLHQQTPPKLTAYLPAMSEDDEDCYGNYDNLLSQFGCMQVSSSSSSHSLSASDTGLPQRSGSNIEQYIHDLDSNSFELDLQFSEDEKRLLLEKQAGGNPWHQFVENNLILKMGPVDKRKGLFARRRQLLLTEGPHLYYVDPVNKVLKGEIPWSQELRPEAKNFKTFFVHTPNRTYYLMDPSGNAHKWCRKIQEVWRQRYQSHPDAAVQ
Sequence of Myosin light chain kinase 2, skeletal/cardiac muscle (Homo sapiens) (Q9H1R3 whole entry): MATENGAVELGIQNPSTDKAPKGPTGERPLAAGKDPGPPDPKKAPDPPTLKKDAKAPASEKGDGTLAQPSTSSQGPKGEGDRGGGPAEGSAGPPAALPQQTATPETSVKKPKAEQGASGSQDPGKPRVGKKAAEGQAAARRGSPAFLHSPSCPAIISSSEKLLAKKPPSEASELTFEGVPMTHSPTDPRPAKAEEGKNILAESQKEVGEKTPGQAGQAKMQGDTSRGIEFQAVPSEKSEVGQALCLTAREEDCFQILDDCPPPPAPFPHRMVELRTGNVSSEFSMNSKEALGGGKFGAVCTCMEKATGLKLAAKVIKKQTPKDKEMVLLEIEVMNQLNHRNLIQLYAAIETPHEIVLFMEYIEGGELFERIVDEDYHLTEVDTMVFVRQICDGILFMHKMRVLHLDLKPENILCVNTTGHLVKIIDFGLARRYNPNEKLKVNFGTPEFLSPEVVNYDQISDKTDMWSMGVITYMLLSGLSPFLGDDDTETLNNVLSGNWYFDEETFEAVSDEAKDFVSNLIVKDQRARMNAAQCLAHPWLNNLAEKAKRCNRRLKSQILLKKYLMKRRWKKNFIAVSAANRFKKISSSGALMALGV
Sequence of Sphingosine kinase 2 (Homo sapiens) (Q9NRA0 whole entry): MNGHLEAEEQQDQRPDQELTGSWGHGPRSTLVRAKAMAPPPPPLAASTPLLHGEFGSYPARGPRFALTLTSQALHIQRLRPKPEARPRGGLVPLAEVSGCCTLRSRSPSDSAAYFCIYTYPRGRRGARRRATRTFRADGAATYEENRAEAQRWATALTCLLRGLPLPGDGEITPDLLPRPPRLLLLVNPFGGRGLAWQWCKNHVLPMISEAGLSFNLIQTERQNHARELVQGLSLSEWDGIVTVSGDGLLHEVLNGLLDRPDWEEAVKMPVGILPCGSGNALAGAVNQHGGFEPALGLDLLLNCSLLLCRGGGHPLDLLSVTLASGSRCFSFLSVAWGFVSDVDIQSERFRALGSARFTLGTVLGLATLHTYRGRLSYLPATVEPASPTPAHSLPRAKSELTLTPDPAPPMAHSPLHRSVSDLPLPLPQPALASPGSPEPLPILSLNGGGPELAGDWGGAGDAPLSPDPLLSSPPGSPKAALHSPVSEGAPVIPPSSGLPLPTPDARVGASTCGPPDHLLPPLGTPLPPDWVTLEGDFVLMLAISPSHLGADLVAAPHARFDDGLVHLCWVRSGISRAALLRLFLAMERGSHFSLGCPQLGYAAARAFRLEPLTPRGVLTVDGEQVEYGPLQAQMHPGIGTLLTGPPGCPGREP
Sequence of G protein-coupled receptor kinase 6 (Homo sapiens) (P43250 whole entry, looked up): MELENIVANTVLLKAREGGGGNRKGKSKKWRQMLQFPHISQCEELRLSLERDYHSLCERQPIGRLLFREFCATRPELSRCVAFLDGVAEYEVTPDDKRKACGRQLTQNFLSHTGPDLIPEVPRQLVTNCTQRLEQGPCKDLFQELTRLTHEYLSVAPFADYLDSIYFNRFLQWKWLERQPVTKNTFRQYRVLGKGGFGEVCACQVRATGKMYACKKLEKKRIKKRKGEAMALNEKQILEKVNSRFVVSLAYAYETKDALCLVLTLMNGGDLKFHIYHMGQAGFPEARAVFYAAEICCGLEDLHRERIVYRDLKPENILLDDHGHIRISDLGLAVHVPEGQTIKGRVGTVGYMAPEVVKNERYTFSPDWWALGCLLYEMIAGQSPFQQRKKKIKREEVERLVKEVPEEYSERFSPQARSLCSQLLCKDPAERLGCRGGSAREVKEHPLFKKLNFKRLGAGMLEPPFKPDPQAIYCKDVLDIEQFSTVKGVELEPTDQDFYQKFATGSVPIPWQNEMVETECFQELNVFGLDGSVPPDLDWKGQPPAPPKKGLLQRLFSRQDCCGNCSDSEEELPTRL
Sequence of Epidermal growth factor receptor (Homo sapiens), P00533 [L861Q] (P00533 whole entry L861Q): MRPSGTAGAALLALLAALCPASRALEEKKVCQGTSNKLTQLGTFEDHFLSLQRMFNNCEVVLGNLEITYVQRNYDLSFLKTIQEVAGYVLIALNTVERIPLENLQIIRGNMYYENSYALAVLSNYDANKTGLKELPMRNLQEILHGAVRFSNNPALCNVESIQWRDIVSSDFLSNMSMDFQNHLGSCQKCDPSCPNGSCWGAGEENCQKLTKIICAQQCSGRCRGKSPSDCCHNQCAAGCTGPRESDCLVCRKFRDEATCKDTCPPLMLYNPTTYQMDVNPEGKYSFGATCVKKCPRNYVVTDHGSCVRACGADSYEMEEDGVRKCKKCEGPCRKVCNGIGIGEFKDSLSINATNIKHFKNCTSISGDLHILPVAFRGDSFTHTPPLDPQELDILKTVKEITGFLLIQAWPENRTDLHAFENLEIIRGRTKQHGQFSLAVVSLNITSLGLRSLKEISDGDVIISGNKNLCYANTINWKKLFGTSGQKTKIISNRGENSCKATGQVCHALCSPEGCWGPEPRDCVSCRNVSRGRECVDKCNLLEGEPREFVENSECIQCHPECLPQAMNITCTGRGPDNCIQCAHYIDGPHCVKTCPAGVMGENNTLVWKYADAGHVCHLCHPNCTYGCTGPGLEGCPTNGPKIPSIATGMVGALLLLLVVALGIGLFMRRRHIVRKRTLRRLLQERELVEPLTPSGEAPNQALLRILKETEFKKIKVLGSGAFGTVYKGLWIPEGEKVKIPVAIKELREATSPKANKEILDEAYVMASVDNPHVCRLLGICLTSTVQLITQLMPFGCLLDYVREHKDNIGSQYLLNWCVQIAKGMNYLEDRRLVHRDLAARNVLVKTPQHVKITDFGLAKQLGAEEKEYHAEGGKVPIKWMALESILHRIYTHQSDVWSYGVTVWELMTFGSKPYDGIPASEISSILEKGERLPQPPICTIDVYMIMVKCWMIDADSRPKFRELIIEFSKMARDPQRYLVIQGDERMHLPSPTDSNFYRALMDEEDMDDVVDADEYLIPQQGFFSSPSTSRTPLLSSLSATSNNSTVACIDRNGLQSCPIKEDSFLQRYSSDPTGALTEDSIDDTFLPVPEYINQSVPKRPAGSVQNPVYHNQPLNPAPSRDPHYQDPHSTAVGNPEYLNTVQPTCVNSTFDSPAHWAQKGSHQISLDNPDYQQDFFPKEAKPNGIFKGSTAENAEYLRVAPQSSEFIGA
Sequence of MAP kinase-activated protein kinase 3 (Homo sapiens) (Q16644 whole entry, looked up): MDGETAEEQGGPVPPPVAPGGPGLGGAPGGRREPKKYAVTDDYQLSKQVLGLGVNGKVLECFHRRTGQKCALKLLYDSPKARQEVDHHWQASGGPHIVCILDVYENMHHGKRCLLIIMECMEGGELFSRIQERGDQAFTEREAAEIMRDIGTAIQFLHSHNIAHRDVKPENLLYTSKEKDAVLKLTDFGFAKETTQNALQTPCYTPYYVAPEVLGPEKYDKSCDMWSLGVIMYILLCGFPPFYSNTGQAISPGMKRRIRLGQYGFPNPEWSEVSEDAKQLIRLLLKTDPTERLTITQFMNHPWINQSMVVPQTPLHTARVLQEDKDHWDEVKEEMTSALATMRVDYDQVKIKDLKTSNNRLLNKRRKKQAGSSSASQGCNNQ
Sequence of Tyrosine-protein kinase Lck (Homo sapiens) (P06239 2-509 limits assumed): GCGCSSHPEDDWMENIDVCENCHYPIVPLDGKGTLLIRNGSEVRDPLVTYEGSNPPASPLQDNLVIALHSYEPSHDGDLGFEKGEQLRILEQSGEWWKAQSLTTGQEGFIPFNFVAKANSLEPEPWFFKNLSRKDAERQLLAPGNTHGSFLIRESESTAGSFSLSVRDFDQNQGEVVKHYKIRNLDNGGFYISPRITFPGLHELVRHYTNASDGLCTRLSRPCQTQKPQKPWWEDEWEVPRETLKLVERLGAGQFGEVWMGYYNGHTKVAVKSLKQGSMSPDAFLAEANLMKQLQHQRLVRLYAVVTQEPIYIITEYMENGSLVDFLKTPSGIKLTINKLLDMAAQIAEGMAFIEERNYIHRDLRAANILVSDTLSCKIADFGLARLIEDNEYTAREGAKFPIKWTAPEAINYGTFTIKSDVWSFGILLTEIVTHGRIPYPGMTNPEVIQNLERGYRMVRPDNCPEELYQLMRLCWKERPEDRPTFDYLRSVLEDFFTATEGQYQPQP
Sequence of Serine/threonine-protein kinase 16 (Homo sapiens) (O75716 whole entry): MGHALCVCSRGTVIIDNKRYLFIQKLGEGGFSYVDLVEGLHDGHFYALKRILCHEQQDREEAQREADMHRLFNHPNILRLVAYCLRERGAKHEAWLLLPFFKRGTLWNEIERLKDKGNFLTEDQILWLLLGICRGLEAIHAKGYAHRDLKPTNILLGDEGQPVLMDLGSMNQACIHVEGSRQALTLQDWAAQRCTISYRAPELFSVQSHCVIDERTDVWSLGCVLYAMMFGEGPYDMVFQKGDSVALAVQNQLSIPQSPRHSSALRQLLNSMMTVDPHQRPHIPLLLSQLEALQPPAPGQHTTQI

C[C@@H]1CN(c2cc(-c3nn(C)c4ccc(OC5(C)CC5)cc34)ncn2)C[C@H](C)O1 [MLi-2-NC]
inactive: [1] 21%

C[C@@H]1CN(c2cc(-c3n[nH]c4ccc(OC5(C)CC5)cc34)ncn2)C[C@H](C)O1 [MLi-2]
inactive: [2] 1.54% | [3] 3.73% | [4] 5% | [5] 19% | [6] 7.58% | [7] 8.93% | [8] 10.7% | [9] 2.58% | [10] 6.63% | [11] -2.36% | [12] 14.2% | [13] 5.53% | Rattus norvegicus 1% | [14] 10.4% | [15] -0.739% | [16] 4.9% | [17] 9.16% | [18] 13.6% | [19] 1.42% | [20] 19.8%

— ChEMBL document CHEMBL4507291 (2021)
